The values below come from ChEMBL document CHEMBL4043168, “The design and SAR of a novel series of 2-aminopyridine based LRRK2 inhibitors” (Bioorg Med Chem Lett, 2017).

Experiment [1] deals with Mitogen-activated protein kinase 7 (Homo sapiens) (UniProt Q13164). Nature of the experiment: Inhibition of Erk5 conserved Lys2 (DLKPSNLLVNENCELK) in human PBMC at 1 uM.
In experiment [2] the target is Serine/threonine-protein kinase Nek7 (Homo sapiens) (UniProt Q8TDX7). Description: Inhibition of NEK7 conserved Lys1 (AACLLDGVPVALKK) in human PBMC at 1 uM.
The target of experiment [3] is Kinase suppressor of Ras 1 (Homo sapiens) (UniProt Q8IVT5). Nature of the experiment: Inhibition of KSR1 activation Loop (SKNVFYDNGK) in human PBMC at 0.1 uM.
Sequence of Kinase suppressor of Ras 1 (Homo sapiens) (Q8IVT5 whole entry): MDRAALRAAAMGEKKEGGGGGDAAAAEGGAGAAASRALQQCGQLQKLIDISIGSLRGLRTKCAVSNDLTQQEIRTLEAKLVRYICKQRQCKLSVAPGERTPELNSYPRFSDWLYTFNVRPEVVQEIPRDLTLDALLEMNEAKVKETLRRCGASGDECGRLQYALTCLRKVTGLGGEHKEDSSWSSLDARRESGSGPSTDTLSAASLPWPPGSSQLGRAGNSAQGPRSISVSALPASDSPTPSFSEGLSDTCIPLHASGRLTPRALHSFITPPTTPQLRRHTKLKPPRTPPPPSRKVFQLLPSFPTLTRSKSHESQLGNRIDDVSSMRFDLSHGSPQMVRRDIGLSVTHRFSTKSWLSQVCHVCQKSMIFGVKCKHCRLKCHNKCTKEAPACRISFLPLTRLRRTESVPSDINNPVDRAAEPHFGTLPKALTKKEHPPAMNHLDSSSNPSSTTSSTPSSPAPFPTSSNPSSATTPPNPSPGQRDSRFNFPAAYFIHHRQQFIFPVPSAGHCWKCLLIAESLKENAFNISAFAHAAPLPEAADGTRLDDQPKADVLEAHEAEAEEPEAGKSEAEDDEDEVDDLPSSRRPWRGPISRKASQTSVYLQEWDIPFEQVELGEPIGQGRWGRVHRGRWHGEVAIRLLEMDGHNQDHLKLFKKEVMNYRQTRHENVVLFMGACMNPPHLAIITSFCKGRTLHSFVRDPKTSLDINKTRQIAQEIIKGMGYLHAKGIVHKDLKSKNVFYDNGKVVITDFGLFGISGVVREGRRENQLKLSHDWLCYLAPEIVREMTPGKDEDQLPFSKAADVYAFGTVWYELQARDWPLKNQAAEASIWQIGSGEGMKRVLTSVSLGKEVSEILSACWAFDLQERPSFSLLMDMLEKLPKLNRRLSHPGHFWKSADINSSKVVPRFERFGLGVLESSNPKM
In experiment [4] the target is T1, Mitogen-activated protein kinase kinase kinase 5 (Homo sapiens) (UniProt Q99683).
T1 sequence (whole entry): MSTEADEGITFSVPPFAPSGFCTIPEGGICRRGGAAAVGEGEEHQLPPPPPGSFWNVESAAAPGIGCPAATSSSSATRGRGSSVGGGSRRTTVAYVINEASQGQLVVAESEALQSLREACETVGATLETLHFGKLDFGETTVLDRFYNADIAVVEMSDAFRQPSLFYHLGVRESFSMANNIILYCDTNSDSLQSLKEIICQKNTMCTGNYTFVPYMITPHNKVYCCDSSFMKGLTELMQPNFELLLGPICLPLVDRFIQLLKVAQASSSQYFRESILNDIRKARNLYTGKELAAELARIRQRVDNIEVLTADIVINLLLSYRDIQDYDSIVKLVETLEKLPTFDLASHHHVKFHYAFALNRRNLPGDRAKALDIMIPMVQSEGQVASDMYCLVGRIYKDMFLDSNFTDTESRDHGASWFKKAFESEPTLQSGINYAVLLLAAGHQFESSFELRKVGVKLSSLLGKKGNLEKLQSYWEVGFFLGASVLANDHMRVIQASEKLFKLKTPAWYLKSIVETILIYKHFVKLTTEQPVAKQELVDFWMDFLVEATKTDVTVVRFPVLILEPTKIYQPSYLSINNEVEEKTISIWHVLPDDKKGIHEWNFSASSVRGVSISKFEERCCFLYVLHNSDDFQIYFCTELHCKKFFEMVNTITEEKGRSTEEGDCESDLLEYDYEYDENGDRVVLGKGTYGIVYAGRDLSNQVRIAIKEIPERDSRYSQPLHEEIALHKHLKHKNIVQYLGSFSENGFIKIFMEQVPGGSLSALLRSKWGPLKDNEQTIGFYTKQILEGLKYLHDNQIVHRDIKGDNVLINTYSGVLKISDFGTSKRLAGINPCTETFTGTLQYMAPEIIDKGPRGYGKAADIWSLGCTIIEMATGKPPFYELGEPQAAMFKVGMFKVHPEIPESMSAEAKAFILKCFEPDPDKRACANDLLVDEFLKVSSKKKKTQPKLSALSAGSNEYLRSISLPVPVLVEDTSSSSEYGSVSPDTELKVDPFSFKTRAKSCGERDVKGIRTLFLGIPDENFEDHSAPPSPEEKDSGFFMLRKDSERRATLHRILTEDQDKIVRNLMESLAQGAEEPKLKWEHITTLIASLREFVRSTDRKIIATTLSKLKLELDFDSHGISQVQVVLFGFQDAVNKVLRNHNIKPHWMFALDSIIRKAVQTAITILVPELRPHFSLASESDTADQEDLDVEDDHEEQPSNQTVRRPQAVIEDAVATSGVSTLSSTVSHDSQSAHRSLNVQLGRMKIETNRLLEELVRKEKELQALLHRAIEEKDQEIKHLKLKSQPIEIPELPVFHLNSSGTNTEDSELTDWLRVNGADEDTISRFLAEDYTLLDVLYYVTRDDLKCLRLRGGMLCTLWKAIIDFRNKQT
Description: Inhibition of MAP3K5 conserved Lys2 (DIKGDNVLINTYSGVLK) in human PBMC at 0.1 uM.

Experiment [5] concerns the target Cyclin-dependent kinase 5 (Homo sapiens) (UniProt Q00535). Nature of the experiment: Inhibition of CDK5 labeling at conserved Lys2 (DLKPQNLLINR) in human PBMC at 0.1 uM.
Experiment [6] deals with Leucine-rich repeat serine/threonine-protein kinase 2 (Homo sapiens, UniProt Q5S007, G2019S). Description: Inhibition LRRK2 G2019S mutant (unknown origin) Ser935 phosphorylation in HEK293 cells. The format is cell-based.
Sequence of Leucine-rich repeat serine/threonine-protein kinase 2 (Q5S007 whole entry G2019S, the tested form may be a part): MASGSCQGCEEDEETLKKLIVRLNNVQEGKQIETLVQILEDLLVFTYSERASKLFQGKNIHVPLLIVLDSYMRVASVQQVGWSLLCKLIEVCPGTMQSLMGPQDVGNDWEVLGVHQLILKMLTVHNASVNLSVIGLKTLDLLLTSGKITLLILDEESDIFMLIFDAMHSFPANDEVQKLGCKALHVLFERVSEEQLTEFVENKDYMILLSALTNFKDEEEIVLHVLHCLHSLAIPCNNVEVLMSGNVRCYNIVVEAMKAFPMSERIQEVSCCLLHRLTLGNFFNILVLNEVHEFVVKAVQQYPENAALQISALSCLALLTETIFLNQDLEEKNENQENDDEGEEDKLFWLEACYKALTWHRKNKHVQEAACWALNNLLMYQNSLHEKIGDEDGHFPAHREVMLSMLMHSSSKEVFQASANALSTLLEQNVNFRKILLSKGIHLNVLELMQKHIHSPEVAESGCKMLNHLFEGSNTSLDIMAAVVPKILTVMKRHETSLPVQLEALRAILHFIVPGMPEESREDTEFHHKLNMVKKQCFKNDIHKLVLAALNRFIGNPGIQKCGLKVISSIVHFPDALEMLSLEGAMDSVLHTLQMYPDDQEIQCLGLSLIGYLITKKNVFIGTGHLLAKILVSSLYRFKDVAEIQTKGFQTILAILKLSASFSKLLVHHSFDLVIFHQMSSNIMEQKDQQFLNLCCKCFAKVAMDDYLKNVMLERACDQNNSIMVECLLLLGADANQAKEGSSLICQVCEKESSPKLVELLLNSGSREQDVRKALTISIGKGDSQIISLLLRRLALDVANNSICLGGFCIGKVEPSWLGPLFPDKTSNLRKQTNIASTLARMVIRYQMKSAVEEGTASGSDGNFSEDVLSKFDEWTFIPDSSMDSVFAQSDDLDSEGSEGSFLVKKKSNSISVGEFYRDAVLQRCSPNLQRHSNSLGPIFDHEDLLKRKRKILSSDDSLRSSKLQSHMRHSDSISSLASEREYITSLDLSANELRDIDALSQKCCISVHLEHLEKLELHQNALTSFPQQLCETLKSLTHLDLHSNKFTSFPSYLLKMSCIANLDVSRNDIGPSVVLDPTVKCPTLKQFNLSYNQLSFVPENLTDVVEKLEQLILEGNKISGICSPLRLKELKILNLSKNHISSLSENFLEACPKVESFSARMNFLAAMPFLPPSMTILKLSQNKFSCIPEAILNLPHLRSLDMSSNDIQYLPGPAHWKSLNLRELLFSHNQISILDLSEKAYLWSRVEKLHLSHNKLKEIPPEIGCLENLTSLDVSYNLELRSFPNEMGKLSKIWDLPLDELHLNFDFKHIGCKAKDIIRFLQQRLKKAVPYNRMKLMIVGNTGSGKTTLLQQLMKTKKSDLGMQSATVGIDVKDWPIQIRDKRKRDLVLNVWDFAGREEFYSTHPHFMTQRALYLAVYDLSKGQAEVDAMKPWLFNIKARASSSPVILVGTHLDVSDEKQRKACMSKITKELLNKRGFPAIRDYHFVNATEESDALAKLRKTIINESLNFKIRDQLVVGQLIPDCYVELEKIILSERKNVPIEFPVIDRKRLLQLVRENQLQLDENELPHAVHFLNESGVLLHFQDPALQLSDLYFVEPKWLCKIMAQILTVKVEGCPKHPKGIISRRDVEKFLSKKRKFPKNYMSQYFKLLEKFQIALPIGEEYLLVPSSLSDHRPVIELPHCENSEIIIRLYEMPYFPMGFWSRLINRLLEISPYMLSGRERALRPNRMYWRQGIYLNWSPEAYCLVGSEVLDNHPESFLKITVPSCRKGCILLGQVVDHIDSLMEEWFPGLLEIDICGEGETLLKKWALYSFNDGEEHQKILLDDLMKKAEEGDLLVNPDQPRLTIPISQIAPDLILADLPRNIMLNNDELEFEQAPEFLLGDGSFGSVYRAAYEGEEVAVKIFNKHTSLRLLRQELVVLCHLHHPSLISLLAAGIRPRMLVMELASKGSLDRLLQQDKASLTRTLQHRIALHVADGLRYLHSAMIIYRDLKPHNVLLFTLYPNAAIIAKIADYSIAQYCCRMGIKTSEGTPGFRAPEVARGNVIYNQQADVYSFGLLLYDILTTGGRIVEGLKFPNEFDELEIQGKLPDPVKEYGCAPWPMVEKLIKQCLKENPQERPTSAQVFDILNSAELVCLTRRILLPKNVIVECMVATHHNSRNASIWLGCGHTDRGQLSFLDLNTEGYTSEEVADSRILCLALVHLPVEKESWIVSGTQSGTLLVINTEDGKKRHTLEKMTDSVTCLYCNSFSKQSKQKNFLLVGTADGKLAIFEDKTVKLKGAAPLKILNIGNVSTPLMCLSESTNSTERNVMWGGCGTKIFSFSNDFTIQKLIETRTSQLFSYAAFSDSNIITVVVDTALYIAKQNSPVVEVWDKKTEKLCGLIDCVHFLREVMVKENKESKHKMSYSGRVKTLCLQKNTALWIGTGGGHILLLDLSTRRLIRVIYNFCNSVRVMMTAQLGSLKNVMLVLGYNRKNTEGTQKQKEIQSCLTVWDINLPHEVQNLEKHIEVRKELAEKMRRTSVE
The target of experiment [7] is Ribosomal protein S6 kinase delta-1 (Homo sapiens) (UniProt Q96S38). Description: Inhibition of RSKL1 domain1 Protein Kinase Domain (VLGVIDKVLLVMDTR) in human PBMC at 1 uM.
Experiment [8] addresses Tyrosine-protein kinase ABL1 (Homo sapiens) (UniProt P00519). Description: Inhibition of ABL labeling at activation Loop (LMTGDTYTAHAGAKFPIK) in human PBMC at 1 uM.

Sequence of Cyclin-dependent kinase 5 (Homo sapiens) (Q00535 whole entry, looked up): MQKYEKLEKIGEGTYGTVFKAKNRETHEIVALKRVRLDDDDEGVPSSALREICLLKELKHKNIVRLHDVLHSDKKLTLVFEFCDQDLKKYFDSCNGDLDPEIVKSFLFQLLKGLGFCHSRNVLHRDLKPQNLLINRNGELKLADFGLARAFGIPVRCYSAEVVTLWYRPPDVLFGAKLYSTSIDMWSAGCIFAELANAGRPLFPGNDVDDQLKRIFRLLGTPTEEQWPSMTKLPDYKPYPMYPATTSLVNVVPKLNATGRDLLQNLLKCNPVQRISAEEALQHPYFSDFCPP
Sequence of Tyrosine-protein kinase ABL1 (Homo sapiens) (P00519 whole entry): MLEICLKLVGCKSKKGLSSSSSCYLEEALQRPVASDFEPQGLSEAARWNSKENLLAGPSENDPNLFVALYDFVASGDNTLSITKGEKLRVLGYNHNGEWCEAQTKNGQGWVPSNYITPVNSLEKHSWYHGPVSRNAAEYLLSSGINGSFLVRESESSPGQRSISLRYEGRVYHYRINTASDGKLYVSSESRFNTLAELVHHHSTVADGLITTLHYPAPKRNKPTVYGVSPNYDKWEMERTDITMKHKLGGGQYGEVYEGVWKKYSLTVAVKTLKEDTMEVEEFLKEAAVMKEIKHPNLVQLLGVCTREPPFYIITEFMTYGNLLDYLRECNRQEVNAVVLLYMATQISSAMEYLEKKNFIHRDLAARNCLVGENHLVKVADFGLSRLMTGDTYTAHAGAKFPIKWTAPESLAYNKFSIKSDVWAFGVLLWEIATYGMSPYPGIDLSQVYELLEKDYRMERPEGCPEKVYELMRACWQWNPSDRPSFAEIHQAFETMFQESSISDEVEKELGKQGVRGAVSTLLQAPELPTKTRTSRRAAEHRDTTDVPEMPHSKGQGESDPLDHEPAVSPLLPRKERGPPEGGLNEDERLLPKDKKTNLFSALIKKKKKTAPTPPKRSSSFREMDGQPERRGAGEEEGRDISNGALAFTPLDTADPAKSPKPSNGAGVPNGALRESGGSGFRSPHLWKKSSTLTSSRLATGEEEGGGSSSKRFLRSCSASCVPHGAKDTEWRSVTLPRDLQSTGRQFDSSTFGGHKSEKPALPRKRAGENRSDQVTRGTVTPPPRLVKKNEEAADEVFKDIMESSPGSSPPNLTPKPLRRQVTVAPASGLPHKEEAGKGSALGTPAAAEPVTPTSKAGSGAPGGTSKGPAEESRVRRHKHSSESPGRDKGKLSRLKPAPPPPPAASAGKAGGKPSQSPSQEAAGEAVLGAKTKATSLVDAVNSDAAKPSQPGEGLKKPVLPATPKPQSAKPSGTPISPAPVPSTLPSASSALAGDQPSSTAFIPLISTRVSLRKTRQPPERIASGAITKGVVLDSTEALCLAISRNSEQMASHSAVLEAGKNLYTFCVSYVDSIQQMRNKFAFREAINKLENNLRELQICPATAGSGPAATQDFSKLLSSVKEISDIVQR

Broadly, the inhibition is the relative decrease from the control value, in per cent. What is called IC50 is the concentration at which inhibition is half-maximal. Lower therefore signals greater potency. Consider `CC(C)n1cc(-c2cc(-c3ccc(CN4CCOCC4)cc3)cnc2N)nn1`, for which the inhibition is 30% in experiment [1]; 2.1% in experiment [2]; 20.4% in experiment [3]; 11% in experiment [4]; -3.3% in experiment [5]; 4.7% in experiment [7]. The inhibition in experiment [8] was 34.8%. For the same molecule, the half-maximal inhibitory concentration (IC50) in experiment [6] is 920 nM.
